Laboratory results reported in patent US20170355686A1, “NOVEL OXAZOLE COMPOUNDS AS BETA CATENIN MODULATORS AND USES THEREOF” (NEW YORK UNIVERSITY, priority 2014, published 2017).
pIC50: −log10 of the molar value.

Test system: Wnt reporter
Experiment: Wnt reporter (Super 8X Topflash, TCF promoter) luciferase IC50 assay in STF and STF3A cells
Assay type: cell-based
Settings: for inhibition of the Wnt reporter: HEK293 cells stimulated with either exogenous (STF) or endogenous Wnt 3a (STF3a); for pIC50: range over STF (exogenous Wnt3a, paracrine) and STF3A (endogenous Wnt3a, autocrine) HEK293 cells, 24 hours incubation
Method: STF and STF3A cells were cultured in DMEM, 4500 mg/L glucose supplemented with 10% fetal bovine serum, 2 mM L-glutamine, 110 mg/L sodium pyruvate and Penicillin/Streptomycin.
STF cells are HEK293 cells stably expressing the Super 8X Topflash M50 (http://www.addgene.org/12456/; the entire content of which is incorporated herein by reference) reporter. STF3A cells are HEK293 cells stably expressing both Super 8X Topflash reporter and pPGK-mWnt3A. The above cell lines are a gift from David Virshup.
L-Wnt3A cells were cultured in DMEM, 4500 mg/L glucose supplemented with 10% fetal bovine serum and 2 mM L-glutamine and 110 mg/L sodium pyruvate and Penicillin/Streptomycin. Wnt3A-Conditioned media was prepared with L-Wnt3A cells cultured according to recommended protocols from ATCC (http://www.atcc.org/products/all/CRL-2647.aspx#culturemethod).
Unless otherwise indicated, all experiments described herein that call for supplemental Wnt3a utilize Wnt3a conditioned media prepared by harvesting media from L-cells stably transfected with a Wnt3a coding construct (available from ATCC #CRL-2647). The cells are cultured in DMEM containing 10% fetal bovine serum (FBS). The medium, harvested from adherent cells cultured to about 80% confluency over 4 days, is purified through a 0.2 μm filter and stored at 4° C. over several months without an appreciable loss in activity [Willert et al. Nature 423, 448-52 (2003)].
STF and STF3A cells were seeded in 96 well plates, with 20,000 cells in 100 μL media per well. Following 16 hours incubation, 50 μL of media per well containing STF cells were replaced with the same volume of Wnt3A-Conditioned media.
iCRT3 and analogs were tested in triplicates at a concentration range of 50 μM-0.00013 μM, at 5-fold dilutions. Cells were incubated with the compounds for 24 hours.
Cell viability was measured after incubation with 100 μL of PrestoBlue® Cell Viability Reagent in DMEM (1:9) for 30 minutes. Following fluorescence measurements, media containing PrestoBlue reagents was aspirated. Cell were lysed in 60 μL of Dual-Glo® Reagent from the Dual-Glo® Luciferase Assay System. Luciferase activity was quantified with a luminometer after 10 minutes of incubation at room temperature.
Background subtracted luminescence readings (RLU) from the Dual-Glo® Luciferase assay were normalized against background subtracted fluorescence values (RFU) from the PrestoBlue® Cell Viability assay.
The RLU/RFU values were plotted using GraphPad Prism (www.graphpad.com). The curve was fitted with a three parameter curve fitting equation: Y=Min value+(Max value−Min value)/[1+10̂(X−lg IC50)].
Cell lines tested include STF, which are HEK293 cells expressing firefly luciferase under the control of the TCF promoter, and STF3A, which are the same as STF but also expresses Wnt3a constitutively. The two cell lines facilitate the testing of the compounds in the context of Wnt signaling activated in a paracrine (STF) versus autocrine (STF3A) fashion.
Day 0—Seed cells in 96-well plates (20,000 cells per well)
Day 1—Add compounds. For STF cells, half of the medium was also changed to Wnt3a conditioned medium.
Day 2—Measure PrestoBlue (cell viability) and Dual-Glo luciferase (TCF promoter activity).
The concentration range for iCRT3 was 10 μM-0.0000001 μM. All other compounds were tested at a concentration range of 10 μM-0.000026 μM.

SMILES	inhibition of the Wnt reporter	pIC50
CCc1ccc(-c2nc(CSCC(=O)NCCc3ccc(F)cc3)c(C)o2)cc1 [II-1, 2-[2-(4-ethyl-phenyl)-5-methyl-oxazol-4-ylmethylsulfanyl]-N-[2-(4-fluoro-phenyl)-ethyl]-acetamide]	dose dependent inhibition	5.10 to 5.70
CCc1ccc(-c2nc(CSCC(=O)NCCc3cccnc3)c(C)o2)cc1 [II-7]	dose dependent inhibition	5.10 to 5.70
CCc1ccc(-c2nc(CSCC(=O)NCCc3ccccc3)c(C)o2)cc1 [iCRT3, reference compound]	dose dependent inhibition	4.52 to 4.85
